Assay results from patent US11319303B2 (WIGEN BIOMEDICINE TECHNOLOGY (SHANGHAI) CO., LTD., priority 2017, dated 2022).
Where a name gives a salt, the structure may show the parent alone.

Biological target: LC3B (Homo sapiens, UniProt Q9GZQ8)
Assay: Fluorescence Polarization (FP) Assay: displacement of FITC-labeled peptide from GST-LC3B
Format: binding
Conditions: Fluorescence Polarization assay; GST-LC3B 180 nM, FITC-labeled peptide 18 nM, 25° C.; read-out: IC50
Description: The compounds of the present invention for regulating the autophagy-related protein LC3B were tested by Fluorescence Polarization (FP) Assay.
Fluorescence Polarization (FP) Assay Test

| IC50 | SMILES |
| --- | --- |
| < 3 µM | COCCOCCOc1cccc(C2CC(=O)C(=CNCCN3CCN(CCO)CC3)C(=O)C2)c1 (centres unmarked) [Compound 34, 2-(((2-(4-(2-hydroxyethyl)piperazin-yl)ethyl)amino)methylene)-5-(3-(2-(2-methoxyethoxy)ethoxy)phenyl)cyclohexane-1,3-dione] |
| < 3 µM | O=C1CC(c2cccs2)CC(=O)C1=CNCCN1CCN(CCO)CC1 (centres unmarked) [Compound 37, 2-(((2-(4-(2-hydroxyethyl)piperazin-1-yl)ethyl)amino)methylene)-5-(thiophen-2-yl) cyclohexane-1,3-dione] |
| < 3 µM | O=C1CC(c2c[nH]c3ccccc23)CC(=O)C1=CNCCN1CCN(CCO)CC1 (centres unmarked) [Compound 39, 2-(((2-(4-(2-hydroxyethyl)piperazin-1-yl)ethyl)amino)methylene)-5-(1H-indol-3-yl) cyclohexane-1,3-dione] |
| < 3 µM | O=C1CC(c2ccc(O)cc2)CC(=O)C1=CNCCN1CCN(CCO)CC1 (centres unmarked) [Compound 40, 2-(((2-(4-(2-hydroxyethyl)piperazin-1-yl)ethyl)amino)methylene)-5-(4-hydroxyphenyl) cyclohexane-1,3-dione] |
| 3 to 15 µM | COCCOCCOc1ccccc1C1CC(=O)C(=CNCCN2CCN(CCO)CC2)C(=O)C1 (centres unmarked) [Compound 41] |
| 3 to 15 µM | COCCOc1ccccc1C1CC(=O)C(=CNCCN2CCN(CCO)CC2)C(=O)C1 (centres unmarked) [Compound 42, 2-(((2-(4-(2-hydroxyethyl)piperazin-1-yl)ethyl)amino)methylene)-5-(2-(2-methoxyethoxy)phenyl) cyclohexane-1,3-dione] |
| 15 to 100 µM | COCCOc1ccc(C2CC(=O)C(=CNCCN3CCN(CCO)CC3)C(=O)C2)cc1 (centres unmarked) [Compound 44, 2-(((2-(4-(2-hydroxyethyl)piperazin-1-yl)ethyl)amino)methylene)-5-(4-(2-methoxyethoxy)phenyl) cyclohexane-1,3-dione] |
| 15 to 100 µM | COCCOCCOc1ccc(C2CC(=O)C(=CNCCN3CCN(CCO)CC3)C(=O)C2)cc1 (centres unmarked) [Compound 45, 2-(((2-(4-(2-hydroxyethyl)piperazin-1-yl)ethyl)amino)methylene)-5-(4-(2-(2-methoxyethoxy)ethoxy)phenyl) cyclohexane-1,3-dione] |
| < 3 µM | COc1ccc(C2CC(=O)C(=CNCCN3CCN(CCO)CC3)C(=O)C2)c(OC)c1 (centres unmarked) [Compound 46, 5-(2,4-dimethoxyphenyl)-2-(((2-(4-(2-hydroxyethyl)piperazin-1-yl)ethyl)amino)methylene) cyclohexane-1,3-dione] |
| < 3 µM | O=C1CC(c2ccc(F)cc2)CC(=O)C1=CNCCN1CCN(CCO)CC1 (centres unmarked) [Compound 49, 5-(4-fluorophenyl)-2-(((2-(4-(2-hydroxyethyl)piperazin-1-yl)ethyl)amino)methylene) cyclohexane-1,3-dione] |
| 15 to 100 µM | O=C1CC(c2ccccn2)CC(=O)C1=CNCCN1CCN(CCO)CC1 (centres unmarked) [Compound 53, 2-(((2-(4-(2-hydroxyethyl)piperazin-1-yl)ethyl)amino)methylene)-5-(pyridin-2-yl) cyclohexane-1,3-dione] |
| < 3 µM | COc1ccc(C2CC(=O)C(=CNCCN3CCN(CCO)CC3)C(=O)C2)c2ccccc12 (centres unmarked) [Compound 54, 2-(((2-(4-(2-hydroxyethyl)piperazin-1-yl)ethyl)amino)methylene)-5-(4-methoxy-naphthalen-1-yl)cyclohexane-1,3-dione] |
| 15 to 100 µM | Cn1cccc1C1CC(=O)C(=CNCCN2CCN(CCO)CC2)C(=O)C1 (centres unmarked) [Compound 55, 2-(((2-(4-(2-hydroxyethyl)piperazin-1-yl)ethyl)amino)methylene)-5-(1-methyl-1H-pyrrol-2-yl)cyclohexane-1,3-dione] |
| 3 to 15 µM | O=C1CC(c2ccnc3ccccc23)CC(=O)C1=CNCCN1CCN(CCO)CC1 (centres unmarked) [Compound 62, 2-(((2-(4-(2-hydroxyethyl)piperazin-1-yl)ethyl)amino)methylene)-5-(quinolin-4-yl) cyclohexane-1,3-dione] |
| < 3 µM | O=C1CC(c2csc3ccccc23)CC(=O)C1=CNCCN1CCN(CCO)CC1 (centres unmarked) [Compound 66, 5-(benzo[b]thiophen-3-yl)-2-(((2-(4-(2-hydroxyethyl)piperazin-1-yl)ethyl)amino)methylene) cyclohexane-1,3-dione] |
| < 3 µM | O=C1CC(c2cccc3[nH]ccc23)CC(=O)C1=CNCCN1CCN(CCO)CC1 (centres unmarked) [Compound 68, 2-(((2-(4-(2-hydroxyethyl)piperazin-1-yl)ethyl)amino)methylene)-5-(1H-indol-4-yl) cyclohexane-1,3-dione] |
| 15 to 100 µM | CC(c1ccccc1)C1CC(=O)C(=CNCCN2CCN(CCO)CC2)C(=O)C1 (centres unmarked) [Compound 69, 2-(((2-(4-(2-hydroxyethyl)piperazin-1-yl)ethyl)amino)methylene)-5-(1-phenylethyl) cyclohexane-1,3-dione] |

Second part, the molecule before the results:

| SMILES | IC50 |
| --- | --- |
| O=C1CC(COc2cccc(F)c2)CC(=O)C1=CNCCN1CCN(CCO)CC1 (centres unmarked) [Compound 32, 5-((3-fluorophenoxy)methyl)-2-(((2-(4-(2-hydroxyethyl)piperazin-1-yl)ethyl)amino)methylene) cyclohexane-1,3-dione] | 3 to 15 µM |
| O=C1CC(c2ccc(-c3ncnc4[nH]cnc34)cc2)CC(=O)C1=CNCCN1CCN(CCO)CC1 (centres unmarked) [Compound 33, 5-(4-(9H-purin-6-yl)phenyl)-2-(((2-(4-(2-hydroxyethyl)piperazin-1-yl)ethyl)amino)methylene)cyclohexane-1,3-dione] | 15 to 100 µM |
| O=C1CC(c2ccc(N3CCOCC3)cc2)CC(=O)C1=CNCCN1CCN(CCO)CC1 (centres unmarked) [Compound 35, 2-(((2-(4-(2-hydroxyethyl)piperazin-1-yl)ethyl)amino)methylene)-5-(4-morpholinophenyl) cyclohexane-1,3-dione] | 15 to 100 µM |
| CN1CCN(c2ccc(C3CC(=O)C(=CNCCN4CCN(CCO)CC4)C(=O)C3)cc2)CC1 (centres unmarked) [Compound 36, 2-(((2-(4-(2-hydroxyethyl)piperazin-1-yl)ethyl)amino)methylene)-5-(4-(4-methylpiperazin-1-yl)phenyl) cyclohexane-1,3-dione] | 100 to 1000 µM |
| O=C1CC(c2ccco2)CC(=O)C1=CNCCN1CCN(CCO)CC1 (centres unmarked) [Compound 43, 5-(furan-2-yl)-2-(((2-(4-(2-hydroxyethyl)piperazin-1-yl)ethyl)amino)methylene) cyclohexane-1,3-dione] | 3 to 15 µM |
| O=C1CC(c2ccc(C(F)(F)F)cc2)CC(=O)C1=CNCCN1CCN(CCO)CC1 (centres unmarked) [Compound 48, 2-(((2-(4-(2-hydroxyethyl)piperazin-1-yl)ethyl)amino)methylene)-5-(4-(trifluoromethyl)phenyl) cyclohexane-1,3-dione] | < 3 µM |
| O=C1CC(c2ccc(OC(F)(F)F)cc2)CC(=O)C1=CNCCN1CCN(CCO)CC1 (centres unmarked) [Compound 50, 2-(((2-(4-(2-hydroxyethyl)piperazin-1-yl)ethyl)amino)methylene)-5-(4-(trifluoromethoxy)phenyl) cyclohexane-1,3-dione] | < 3 µM |
| N#Cc1ccc(C2CC(=O)C(=CNCCN3CCN(CCO)CC3)C(=O)C2)cc1 (centres unmarked) [Compound 51, 2-(((2-(4-(2-hydroxyethyl)piperazin-1-yl)ethyl)amino)methylene)-5-(4-(cyano)phenyl) cyclohexane-1,3-dione] | 15 to 100 µM |
| O=C1CC(c2cccc3c2OCCO3)CC(=O)C1=CNCCN1CCN(CCO)CC1 (centres unmarked) [Compound 56, 5-(2,3-dihydrobenzo [b][1,4]dioxin-5-yl)-2-(((2-(4-(2-hydroxyethyl)piperazin-1-yl)ethyl)amino)methylene) cyclohexane-1,3-dione] | 3 to 15 µM |
| O=C1CC(c2nccs2)CC(=O)C1=CNCCN1CCN(CCO)CC1 (centres unmarked) [Compound 57, 2-(((2-(4-(2-hydroxyethyl)piperazin-1-yl)ethyl)amino)methylene)-5-(thiazol-2-yl) cyclohexane-1,3-dione] | 15 to 100 µM |
| O=C1CC(c2c[nH]cn2)CC(=O)C1=CNCCN1CCN(CCO)CC1 (centres unmarked) [Compound 59, 2-(((2-(4-(2-hydroxyethyl)piperazin-1-yl)ethyl)amino)methylene)-5-(1H-imidazol-4-yl) cyclohexane-1,3-dione] | 100 to 1000 µM |
| O=C1CC(c2c3ccccc3cc3ccccc23)CC(=O)C1=CNCCN1CCN(CCO)CC1 (centres unmarked) [Compound 61, 5-(anthracen-9-yl)-2-(((2-(4-(2-hydroxyethyl)piperazin-1-yl)ethyl)amino)methylene) cyclohexane-1,3-dione] | < 3 µM |
| CCC(CC)C1CC(=O)C(=CNCCN2CCN(CCO)CC2)C(=O)C1 (centres unmarked) [Compound 63, 2-(((2-(4-(2-hydroxyethyl)piperazin-1-yl)ethyl)amino)methylene)-5-(pentan-3-yl) cyclohexane-1,3-dione] | 15 to 100 µM |
| O=C1CC(C2CCOCC2)CC(=O)C1=CNCCN1CCN(CCO)CC1 (centres unmarked) [Compound 64, 2-(((2-(4-(2-hydroxyethyl)piperazin-1-yl)ethyl)amino)methylene)-5-(tetrahydro-2H-pyran-4-yl)cyclohexane-1,3-dione] | 100 to 1000 µM |
| CS(=O)(=O)c1ccc(C2CC(=O)C(=CNCCN3CCN(CCO)CC3)C(=O)C2)cc1 (centres unmarked) [Compound 65, 2-(((2-(4-(2-hydroxyethyl)piperazin-1-yl)ethyl)amino)methylene)-5-(4-(methylsulfonyl)phenyl) cyclohexane-1,3-dione] | 100 to 1000 µM |
| O=C1CC(C2CC2)CC(=O)C1=CNCCN1CCN(CCO)CC1 (centres unmarked) [Compound 67, 5-cyclopropyl-2-(((2-(4-(2-hydroxyethyl)piperazin-1-yl)ethyl)amino)methylene) cyclohexane-1,3-dione] | 100 to 1000 µM |
| O=C1CC(C2CCNCC2)CC(=O)C1=CNCCN1CCN(CCO)CC1 (centres unmarked) [Compound 70, 2-(((2-(4-(2-hydroxyethyl)piperazin-1-yl)ethyl)amino)methylene)-5-(piperidin-4-yl) cyclohexane-1,3-dione HCl salt] | 100 to 1000 µM |
| O=C1CC(c2ccc(OCCOc3ccncc3)cc2)CC(=O)C1=CNCCN1CCN(CCO)CC1 (centres unmarked) [Compound 71, 2-(((2-(4-(2-hydroxyethyl)piperazin-1-yl)ethyl)amino)methylene)-5-(4-(2-(pyridin-4-yloxy)ethoxy)phenyl) cyclohexane-1,3-dione] | 15 to 100 µM |
